Results: patent US6635636B1, “Substituted 6-benzyl-4-oxopyrimidines, process for their preparation and pharmaceutical compositions containing them” (Idenix Pharmaceuticals, Inc., priority 1998, dated 2003)

Tested on: HIV-1 (IIIB strain)
Assay: Anti-HIV-1 assay: inhibition of virus-induced cytopathicity in acutely infected MT-4 cells (MTT)
Format: cell-based
Conditions: HIV-1 infected MT-4 cells, MTT method; mean of at least two separate experiments; read-out: EC50: compound dose required to achieve 50% protection of MT-4 cells from HIV-1 induced cytopathogenicity
Method: (§1) Compounds. Compounds were solubilized in DMSO at 200 mM and then diluted into culture medium.
(§2) Cells and viruses. MT-4, C8166, H9/IIIB and CEM cells were grown at 37° C. in a 5% CO2 atmosphere in RPMI 1640 medium, supplemented with 10% fetal calf serum (FCS), 100 UI/mL penicillin and 100 μg/mL streptomycin. Cell cultures were checked periodically for the absence of mycoplasma contamination with a MycoTect Kit (Gibco). Human immunodeficiency virus type-1 (HIV-1, IIIB strain) was obtained from supernatants of persistently infected H9/IIIB cells.
(§3) Anti-HIV assays. Activity of the compounds against HIV-1 and HIV-2 multiplication in acutely infected cells was based on the inhibition of virus-induced cytopathicity in MT-4 and C8166 cells, respectively. Briefly, 50 μL of culture medium containing 1×10^4 cells were added to each well of flat-bottom microtiter trays containing 50 μl of culture medium with or without various concentrations of the test compounds. Then 20 μL of an HIV suspension containing 100 CCID50 were added. After a 4-day incubation at 37° C., the number of viable cells was determined by the 3-(4,5-dimethylthiazol-[…])-2,5-diphenyltetrazolium bromide (MTT) method. Cytotoxicity of the compounds was evaluated in parallel with their antiviral activity. It was based on the viability of mock-infected cells, as monitored by the MTT method.

First: CC(c1cc(=O)[nH]c(NC2CCCCC2)n1)c1c(F)cccc1F (racemic) [MC 1180]
Second: Cc1c(C(C)c2c(F)cccc2F)nc(NC2CCCCC2)[nH]c1=O (racemic) [MC 1181]
The EC50 of the first is 1.5-fold lower: 0.02 µM for the first, 0.03 µM for the second.

Compared with `CCCCNc1nc(C(C)c2c(F)cccc2F)c(C)c(=O)[nH]1` (racemic) [MC 1187], `CNc1nc(C(C)c2c(F)cccc2F)c(C)c(=O)[nH]1` (racemic) [MC 1170] is 3-fold higher in EC50: 0.01 µM for the first, 0.03 µM for the second.

`Cc1c(C(C)c2c(F)cccc2F)nc(SC(C)C)[nH]c1=O` (racemic) [MC 1137] and `Cc1c(C(C)c2c(F)cccc2F)nc(SCC(C)C)[nH]c1=O` (racemic) [MC 1153] are within 1.5-fold of each other in EC50: 0.007 µM for the first, 0.01 µM for the second.

Going from `Cc1c(C(C)c2c(F)cccc2F)nc(SC2CCCCC2)[nH]c1=O` (racemic) [MC 1174] to `CCCCSc1nc(C(C)c2c(F)cccc2F)c(C)c(=O)[nH]1` (racemic) [MC 1175], the EC50 falls from 0.018 µM to 0.008 µM (2.2-fold). The second is the more potent here.

`CCC(C)Nc1nc(C(C)c2c(F)cccc2F)cc(=O)[nH]1` (mixture of isomers) [MC 1192] and `CC(C)Nc1nc(C(C)c2c(F)cccc2F)cc(=O)[nH]1` (racemic) [MC 1191] are within 1.5-fold of each other in EC50: 0.04 µM for the first, 0.03 µM for the second.

For `CCCCNc1nc(C(C)c2c(F)cccc2F)cc(=O)[nH]1` (racemic) [MC 1189], the EC50 was 0.03 µM.

Same assay, conditions: MT-4 cells, HIV-1, MTT method; mean of at least two separate experiments; read-out: EC50 (compound dose required to achieve 50% protection of MT-4 cells from HIV-1 induced cytopathogenicity)

Going from `CCC(C)Sc1nc(Cc2ccccc2C(F)(F)F)cc(=O)[nH]1` (racemic) [MC 868] to `CCC(C)Sc1nc(Cc2ccccc2C)cc(=O)[nH]1` (racemic) [MC 806], the EC50 falls from 32 µM to 1.8 µM (18-fold). The second is the more potent here.

Going from `CC1CC(C)CC(Oc2nc(Cc3ccccc3)cc(=O)[nH]2)C1` (mixture of isomers) [MC 512] to `CC1CCC(Oc2nc(Cc3ccccc3)cc(=O)[nH]2)CC1C` (mixture of isomers) [MC 508], the EC50 falls from 30 µM to 6.4 µM (4.7-fold). The second is the more potent here.

First: CCC(C)Sc1nc(Cc2ccccc2[N+](=O)[O-])cc(=O)[nH]1 (racemic) [MC 817]
Second: CCC(C)Sc1nc(Cc2cccc([N+](=O)[O-])c2)cc(=O)[nH]1 (racemic) [MC 897]
The EC50 of the first is 1.6-fold lower: 0.25 µM for the first, 0.4 µM for the second. The first is the more potent here.

Going from `CCC(C)Sc1nc(Cc2ccc([N+](=O)[O-])cc2)cc(=O)[nH]1` (racemic) [MC 863] to `CCC(C)Sc1nc(Cc2ccc(Cl)cc2)cc(=O)[nH]1` (racemic) [MC 859], the EC50 rises from 1.5 µM to 5 µM (3.3-fold). The first is the more potent here.

`CCC(c1ccccc1)c1cc(=O)[nH]c(SC(C)C)n1` (racemic) [MC 899] and `CC(C)Sc1nc(C(C)c2ccccc2)cc(=O)[nH]1` (racemic) [MC 890] are within 1.5-fold of each other in EC50: 0.8 µM for the first, 0.9 µM for the second.

`Cc1c(Cc2ccccc2)nc(OC2CC(C)CCC2C)[nH]c1=O` (mixture of isomers) [MC 531] and `CC1CCC(C)C(Oc2nc(Cc3ccccc3)cc(=O)[nH]2)C1` (mixture of isomers) [MC 507] are the same in EC50: 3.5 µM for the first, 3.5 µM for the second.

Compared with `CC(c1ccccc1)c1cc(=O)[nH]c(SC2CCCC2)n1` (racemic) [MC 892], `CCC(c1ccccc1)c1cc(=O)[nH]c(SC2CCCC2)n1` (racemic) [MC 900] is 1.7-fold higher in EC50: 0.6 µM for the first, 1 µM for the second.

Compared with `Cc1c([C@@H](C)c2c(F)cccc2F)nc(SC2CCCC2)[nH]c1=O` [MC 1047], `CNc1nc(C(C)c2c(F)cccc2F)cc(=O)[nH]1` (racemic) [MC 1178] is 12-fold higher in EC50: 0.009 µM for the first, 0.11 µM for the second. The first is the more potent here.

Going from `CCC(C)Sc1nc(Cc2ccc(C(F)(F)F)cc2)cc(=O)[nH]1` (racemic) [MC 959] to `CCC(C)Sc1nc(Cc2ccc(F)cc2)cc(=O)[nH]1` (racemic) [MC 889], the EC50 falls from 25 µM to 8.7 µM (2.9-fold). The second is the more potent here.

`CCC(C)Sc1nc(Cc2ccc(C)cc2)cc(=O)[nH]1` (racemic) [MC 809] and `CCC(C)Sc1nc(Cc2cccc(F)c2)cc(=O)[nH]1` (racemic) [MC 884] are within 1.5-fold of each other in EC50: 0.6 µM for the first, 0.7 µM for the second.

Compared with `CCC(c1ccccc1)c1cc(=O)[nH]c(SC2CCCCC2)n1` (racemic) [MC 903], `CCC(C)Sc1nc(C(c2ccccc2)c2ccccc2)cc(=O)[nH]1` (racemic) [MC 796] is higher in EC50: 1.3 µM for the first, over 61 µM for the second. The first is the more potent here.

In the case of `CCC(C)Oc1nc(Cc2c(F)cccc2F)cc(=O)[nH]1` (racemic) [MC 1114], the EC50 is reported as 25 µM.

Tested on: not given
Assay: not given
Conditions: not given

`Cc1c(Cc2c(F)cccc2F)nc(NC2CCCC2)[nH]c1=O` [MC1050, 2-Cyclopentylamino-6-(2,6-difluorophenylmethyl)-3,4-dihydro-5-methylpyrimidin-4-one] showed a melting point of 115 to 117 °C.

Tested on: mock-infected MT-4 cells
Assay: Cytotoxicity: viability of mock-infected cells by the MTT method
Format: cell-based
Conditions: not given
Method: as §1, §2, §3

`CC(c1cc(=O)[nH]c(NC2CCCCC2)n1)c1c(F)cccc1F` (racemic) [MC 1180] and `Cc1c(C(C)c2c(F)cccc2F)nc(NC2CCCCC2)[nH]c1=O` (racemic) [MC 1181] are within 1.5-fold of each other in CC50: 56 µM for the first, 58 µM for the second.

Going from `CCCCNc1nc(C(C)c2c(F)cccc2F)c(C)c(=O)[nH]1` (racemic) [MC 1187] to `CNc1nc(C(C)c2c(F)cccc2F)c(C)c(=O)[nH]1` (racemic) [MC 1170], the CC50 rises from 83 µM to 200 µM (2.4-fold).

`CCC(C)Sc1nc(Cc2ccccc2C(F)(F)F)cc(=O)[nH]1` (racemic) [MC 868] and `CCC(C)Sc1nc(Cc2ccccc2C)cc(=O)[nH]1` (racemic) [MC 806] cannot be ordered by CC50: over 200 µM for the first, over 200 µM for the second.

Compared with `CC1CC(C)CC(Oc2nc(Cc3ccccc3)cc(=O)[nH]2)C1` (mixture of isomers) [MC 512], `CC1CCC(Oc2nc(Cc3ccccc3)cc(=O)[nH]2)CC1C` (mixture of isomers) [MC 508] is lower in CC50: over 200 µM for the first, 58 µM for the second.

Compared with `CCC(C)Sc1nc(Cc2ccccc2[N+](=O)[O-])cc(=O)[nH]1` (racemic) [MC 817], `CCC(C)Sc1nc(Cc2cccc([N+](=O)[O-])c2)cc(=O)[nH]1` (racemic) [MC 897] is lower in CC50: over 200 µM for the first, 157 µM for the second.

First: Cc1c(C(C)c2c(F)cccc2F)nc(SC(C)C)[nH]c1=O (racemic) [MC 1137]
Second: Cc1c(C(C)c2c(F)cccc2F)nc(SCC(C)C)[nH]c1=O (racemic) [MC 1153]
The CC50 of the first is lower: 200 µM for the first, over 200 µM for the second.

`CCC(C)Sc1nc(Cc2ccc([N+](=O)[O-])cc2)cc(=O)[nH]1` (racemic) [MC 863] and `CCC(C)Sc1nc(Cc2ccc(Cl)cc2)cc(=O)[nH]1` (racemic) [MC 859] are within 1.5-fold of each other in CC50: 151 µM for the first, 120 µM for the second.

Compared with `CCC(c1ccccc1)c1cc(=O)[nH]c(SC(C)C)n1` (racemic) [MC 899], `CC(C)Sc1nc(C(C)c2ccccc2)cc(=O)[nH]1` (racemic) [MC 890] is higher in CC50: 200 µM for the first, over 200 µM for the second.

`Cc1c(Cc2ccccc2)nc(OC2CC(C)CCC2C)[nH]c1=O` (mixture of isomers) [MC 531] and `CC1CCC(C)C(Oc2nc(Cc3ccccc3)cc(=O)[nH]2)C1` (mixture of isomers) [MC 507] are within 1.5-fold of each other in CC50: 138 µM for the first, 143 µM for the second.

Going from `CC(c1ccccc1)c1cc(=O)[nH]c(SC2CCCC2)n1` (racemic) [MC 892] to `CCC(c1ccccc1)c1cc(=O)[nH]c(SC2CCCC2)n1` (racemic) [MC 900], the CC50 rises from 159 µM to over 200 µM.

`Cc1c([C@@H](C)c2c(F)cccc2F)nc(SC2CCCC2)[nH]c1=O` [MC 1047] and `Cc1c(C(C)c2c(F)cccc2F)nc(SC2CCCCC2)[nH]c1=O` (racemic) [MC 1174] cannot be ordered by CC50: over 200 µM for the first, over 200 µM for the second.

Compared with `CCC(C)Sc1nc(Cc2ccc(C(F)(F)F)cc2)cc(=O)[nH]1` (racemic) [MC 959], `CCC(C)Sc1nc(Cc2ccc(F)cc2)cc(=O)[nH]1` (racemic) [MC 889] is higher in CC50: 200 µM for the first, over 200 µM for the second.

`CNc1nc(C(C)c2c(F)cccc2F)cc(=O)[nH]1` (racemic) [MC 1178] and `CC(C)Nc1nc(C(C)c2c(F)cccc2F)cc(=O)[nH]1` (racemic) [MC 1191] are within 1.5-fold of each other in CC50: 106 µM for the first, 115 µM for the second.

Going from `CCC(C)Sc1nc(Cc2ccc(C)cc2)cc(=O)[nH]1` (racemic) [MC 809] to `CCC(C)Sc1nc(Cc2cccc(F)c2)cc(=O)[nH]1` (racemic) [MC 884], the CC50 rises from 200 µM to over 200 µM.

Going from `CCC(C)Nc1nc(C(C)c2c(F)cccc2F)cc(=O)[nH]1` (mixture of isomers) [MC 1192] to `CCCCNc1nc(C(C)c2c(F)cccc2F)cc(=O)[nH]1` (racemic) [MC 1189], the CC50 falls from 86 µM to 52 µM (1.7-fold).

Going from `CCC(c1ccccc1)c1cc(=O)[nH]c(SC2CCCCC2)n1` (racemic) [MC 903] to `CCC(C)Sc1nc(C(c2ccccc2)c2ccccc2)cc(=O)[nH]1` (racemic) [MC 796], the CC50 falls from over 200 µM to 61 µM.

`CCC(C)Oc1nc(Cc2c(F)cccc2F)cc(=O)[nH]1` (racemic) [MC 1114] and `CCCCSc1nc(C(C)c2c(F)cccc2F)c(C)c(=O)[nH]1` (racemic) [MC 1175] are within 1.5-fold of each other in CC50: 130 µM for the first, 112 µM for the second.
